Experimental data published in ChEMBL document CHEMBL3044635, “Effect of propiconazole and difenoconazole on the control of anthracnose of chilli fruits caused by Colletotrichum capsici” (Crop Prot, 2006).
Values after ≈ are worked out from the molar mass of the structure shown.

Experiments:
Colletotrichum truncatum [1] = experiment: Fungicidal activity against Colletotrichum capsici assessed as reduction of polygalacturonase production at 1 ug/ml incubated for 10 days measured up to 120 min by Ostwald-Fenske viscometric analysis (reference value: 45.3%); format: functional; set-up: scale not given: the % may be the effect or the level left
Colletotrichum truncatum [2] = experiment: Fungicidal activity against Colletotrichum capsici assessed as sporulation at 50 ug/ml incubated 16 hr photoperiod for 20 days by haemocytometer (reference value: 0.081 x 10^6 ml'-1); format: functional
Colletotrichum truncatum [3] = experiment: Fungicidal activity against Colletotrichum capsici assessed as spore germination at 10 ug/ml after 48 to 96 hr (reference value: 70.2 CFU); format: functional
Colletotrichum truncatum [4] = experiment: Fungicidal activity against Colletotrichum capsici assessed as spore germination at 5 ug/ml after 48 to 96 hr (reference value: 70.2 CFU); format: functional
Colletotrichum truncatum [5] = experiment: Fungicidal activity against Colletotrichum capsici assessed as mycelial biomass at 5 ug/ml incubated 16 hr photoperiod for 20 days (reference value: 675 mg); format: functional
Colletotrichum truncatum [6] = experiment: Fungicidal activity against Colletotrichum capsici assessed as linear growth at 5 ug/ml incubated 16 hr photoperiod for 20 days (reference value: 90 mm); format: functional
Colletotrichum truncatum [7] = experiment: Fungicidal activity against Colletotrichum capsici assessed as linear growth at 10 ug/ml incubated 16 hr photoperiod for 20 days (reference value: 90 mm); format: functional
Colletotrichum truncatum [8] = experiment: Fungicidal activity against Colletotrichum capsici infected chilli plant assessed as fruit length at 0.05% applied as spray on day 10 post inoculation and twice every 20 days measured on day 155 post sowing in green house conditions (reference value: 6.8 to 7 cm); format: functional
Capsicum annuum = experiment: Phytotoxicity in Capsicum annuum (pepper) at 0.05% applied as spray; format: organism-based; conditions: in vivo, other
Colletotrichum truncatum [9] = experiment: Fungicidal activity against Colletotrichum capsici infected chilli plant assessed as fruit length measured per plot at 0.025% applied as spray on day 10 post inoculation and twice every 20 days measured on day 155 post sowing in field conditions (reference value: 8 to 8.7 cm); format: functional
Colletotrichum truncatum [10] = experiment: Fungicidal activity against Colletotrichum capsici infected chilli plant assessed as percent disease index at 0.05% applied as spray on day 10 post inoculation and twice every 20 days measured on day 155 post sowing in field conditions (reference value: 51 to 56.5%); format: functional
Puccinia allii = experiment: Fungicidal activity against Puccinia allii assessed as inhibition of spore germination; format: functional
Colletotrichum truncatum [11] = experiment: Fungicidal activity against Colletotrichum capsici assessed as spore germination at 5 ug/ml after 48 to 96 hr relative to control; format: functional
Colletotrichum truncatum [12] = experiment: Fungicidal activity against Colletotrichum capsici infected chilli plant assessed as fruit length at 0.1% applied as spray on day 10 post inoculation and twice every 20 days measured on day 155 post sowing in green house conditions (reference value: 6.8 to 7 cm); format: functional
Colletotrichum truncatum [13] = experiment: Fungicidal activity against Colletotrichum capsici infected chilli plant assessed as fruit mass measured per pot at 0.1% applied as spray on day 10 post inoculation and twice every 20 days measured on day 155 post sowing in green house conditions (reference value: 85.3 to 94.5 g); format: functional
Colletotrichum truncatum [14] = experiment: Fungicidal activity against Colletotrichum capsici infected chilli plant assessed as percent disease index at 0.1% applied as spray on day 10 post inoculation and twice every 20 days measured on day 155 post sowing in green house conditions (reference value: 62.5 to 68.6%); format: functional
Colletotrichum truncatum [15] = experiment: Fungicidal activity against Colletotrichum capsici infected chilli plant assessed as fruit length measured per plot at 0.1% applied as spray on day 10 post inoculation and twice every 20 days measured on day 155 post sowing in field conditions (reference value: 8 to 8.7 cm); format: functional
Colletotrichum truncatum [16] = experiment: Fungicidal activity against Colletotrichum capsici infected chilli plant assessed as fruit yield measured per plot at 0.1% applied as spray on day 10 post inoculation and twice every 20 days measured on day 155 post sowing in field conditions (reference value: 8.25 to 9.3 kg); format: functional
Colletotrichum truncatum [17] = experiment: Fungicidal activity against Colletotrichum capsici infected chilli plant assessed as percent disease index at 0.1% applied as spray on day 10 post inoculation and twice every 20 days measured on day 155 post sowing in field conditions (reference value: 51 to 56.5%); format: functional

CC1COC(Cn2cncn2)(c2ccc(Oc3ccc(Cl)cc3)cc2Cl)O1 (stereo not drawn) [DIFENOCONAZOLE]
Activity (Colletotrichum truncatum [1]): 12%
Activity (Colletotrichum truncatum [2]): 0 ×10⁶ /ml
CFU (Colletotrichum truncatum [3]): 0
CFU (Colletotrichum truncatum [4]): 4.1
Activity (Colletotrichum truncatum [5]): 118 mg
Activity (Colletotrichum truncatum [6]): 27.4 mm
Activity (Colletotrichum truncatum [7]): 18.5 mm
Activity (Colletotrichum truncatum [8]): 7.5 cm
Activity (Capsicum annuum): Non-toxic
Activity (Colletotrichum truncatum [9]): 8.2 cm
PDI (Colletotrichum truncatum [10]): 22%

CCCC1COC(Cn2cncn2)(c2ccc(Cl)cc2Cl)O1 (stereo not drawn) [PROPICONAZOLE]
MIC (Puccinia allii): 50 µg/mL (≈ 146 µM)
Activity (Colletotrichum truncatum [1]): 9.2%
Activity (Colletotrichum truncatum [2]): 0 ×10⁶ /ml
CFU (Colletotrichum truncatum [3]): 0
Activity (Colletotrichum truncatum [11]): 0%
Activity (Colletotrichum truncatum [5]): 53 mg
Activity (Colletotrichum truncatum [6]): 12.61 mm
Activity (Colletotrichum truncatum [7]): 9 mm
Activity (Colletotrichum truncatum [8]): 7.8 cm
Activity (Colletotrichum truncatum [12]): 8 cm
Crop_yield (Colletotrichum truncatum [13]): 165.6 g
PDI (Colletotrichum truncatum [14]): 17.5%
Activity (Colletotrichum truncatum [9]): 8.5 cm
Activity (Colletotrichum truncatum [15]): 10.2 cm
Crop_yield (Colletotrichum truncatum [16]): 17.5 kg
PDI (Colletotrichum truncatum [10]): 20.5%
PDI (Colletotrichum truncatum [17]): 13.5%
